Assay results: patent publication US20200078463A1, “COMPOSITION HAVING IMPROVED WATER SOLUBILITY AND BIOAVAILABILITY” (SAMYANG BIOPHARMACEUTICALS CORPORATION, priority 2017, published 2020)
Where a name gives a salt, the structure may show the parent alone.

Assay: Additive screening: dissolved sorafenib in pH 1.2 buffer by HPLC
Assay type: physicochemical
Settings: 100 mg sorafenib tosylate (crystalline form III) + 10 mg additive in 1 ml pH 1.2 buffer, shaken at 1,100 rpm for 24 hours, filtered 0.45 μm
Experimental: In order to test the content of drug included in the formulation, it was analyzed by HPLC using the following test method.
(1) Buffer preparation: After dissolving 0.77 g ammonium acetate in 1000 ml of water, the pH of the solution was adjusted to 6.8±0.05 using ammonia solutions.
(2) The solution of (1) and acetonitrile were mixed at 40:60 (v/v), and the solution filtered with a filter paper having a pore size of 0.45 μm and degassed was used as a mobile phase.
The buffer solution (1) and acetonitrile were mixed at 30:70 (v/v) to obtain a dilution solution.
1 ml of the standard solution (300 μg/ml) was precisely taken, and 2 ml of the diluted solution was added to prepare a standard solution (100 μg/ml). 1 ml of the standard solution (300 μg/ml) was precisely taken, and 4 ml of the diluted solution was added to prepare a standard solution (60 μg/ml). 1 ml of the standard solution (100 μg/ml) was precisely taken, and 4 ml of the diluted solution was added to prepare a standard solution (20 μg/ml). A calibration curve was drawn using the four standard solutions and used to calculate the content of the test solution.
Detector: ultraviolet absorbance photometer (wavelength 265 nm)
Column: Eclipse XDB-C18, 4.6 mm×150 mm, 5 μm or equivalent column
Column temperature: 27° C.
It was shaken at 1,100 rpm for 24 hours. […]

- Concentration of dissolved sorafenib: 100 ng/mL
SMILES: CNC(=O)c1cc(Oc2ccc(NC(=O)Nc3ccc(Cl)c(C(F)(F)F)c3)cc2)ccn1 [No polymer, sorafenib tosylate]
